Common to all, as to type: cell-based
Assay [1] has as its target T1, 5-HT7R (Homo sapiens (Human), UniProt P34969). The assay can be described thus: Schild plot for Tango assay. The following applies: compounds at 5 μM, 10 μM and 30 μM with serotonin, read-out: pA2 (converted). On the procedure: Schild plots were constructed for the Tango assay in order to investigate the effect of the compounds on the activity of the β-arrestin signaling pathway. After culturing cells and replacing the culture medium as described in b) of Test Example 1, the cells were transfected and prepared on a plate. 6 hours later, the cells were treated with 10 μL of the solution of serotonin or the compounds at final concentrations of 5 μM, 10 μM and 30 μM. […] In addition, the pA2 value was obtained using the Excel software. The Schild plots and pA2 values of compound 23 and compound 30 according to the present disclosure are summarized in FIGS. 1A-1B, FIG. 2 and Table 8.

For assay [2], the target named is T1, 5-HT7R. The assay can be described thus: cAMP assay (luminescence-based, GloSensor). The following applies: HEK293 cells transfected with human 5-HT7R and GloSensor-22F. The protocol:
For luminescence-based cAMP assay, HEK293 cells were cultured on a 150-mm dish. Prior to transfection, the culture medium was replaced from DMEM containing 10% FBS, 100 U/mL penicillin and 100 μg/mL streptomycin to DMEM containing 10% dialyzed FBS, 100 U/mL penicillin and 100 μg/mL streptomycin. 4 hours later, transfection was conducted using 10 μg of a human 5-HT7R plasmid and 10 μg of a GloSensor-22F plasmid (Promega). The transfected cells were prepared on a white, flat, clear-bottom, 384-well plate (Greiner) (15,000 cells/well, 20 μL/well). 6 hours later, after removing the culture medium, the cells were treated with 20 μL of a 3% Glosensor cAMP reagent containing luciferin in a 1×HBSS, […], pH 7.4 buffer. In addition, the compound of each of the examples was prepared at different concentrations in an assay buffer containing 0.1% bovine serum albumin. 30 minutes later, 10 μL of the compound solution was treated to the cells. After measuring luminescence using a Tecan microplate reader (Spark), IC50 value was obtained using the Prism 8.0 program (GraphPad Software).

The target of assay [3] is T1, 5-HT7R. The assay can be described thus: Tango assay (β-arrestin signaling system). The note with it: HTLA cells transfected with 5-HT7R-TCS-tTA construct. The protocol:
Tango assay was conducted using HTLA cells in order to investigate the activity of the β-arrestin signaling system. Prior to transfection, the culture medium was replaced from DMEM containing 10% FBS, 100 U/mL penicillin, 100 μg/mL streptomycin, 2 μg/mL puromycin and 100 μg/mL hygromycin B to DMEM containing 10% dialyzed FBS, 100 U/mL penicillin and 100 μg/mL streptomycin. 4 hours later, transfection was conducted using 20 μg of a 5-HT7R-TCS-tTA construct (5-HT7R Tango DNA). The transfected cells were prepared on a white, flat, clear-bottom, 384-well plate (Greiner) (15,000 cells/well, 20 μL/well) using DMEM containing 10% dialyzed FBS, 100 U/mL penicillin and 100 μg/mL streptomycin. 6 hours later, after removing the culture medium, the cells were treated with 10 μL of the compound solution. After culturing for 22 hours and removing the culture medium, the cells were treated with 20 μL of a BrightGlo reagent (Promega) diluted in a 1×HBSS, […], pH 7.4 buffer. After measuring luminescence using a Tecan microplate reader (Spark), IC50 value was obtained using the Prism 8.0 program (GraphPad Software).

Molecules are shown by their SMILES.

T1 sequence (P34969 whole entry): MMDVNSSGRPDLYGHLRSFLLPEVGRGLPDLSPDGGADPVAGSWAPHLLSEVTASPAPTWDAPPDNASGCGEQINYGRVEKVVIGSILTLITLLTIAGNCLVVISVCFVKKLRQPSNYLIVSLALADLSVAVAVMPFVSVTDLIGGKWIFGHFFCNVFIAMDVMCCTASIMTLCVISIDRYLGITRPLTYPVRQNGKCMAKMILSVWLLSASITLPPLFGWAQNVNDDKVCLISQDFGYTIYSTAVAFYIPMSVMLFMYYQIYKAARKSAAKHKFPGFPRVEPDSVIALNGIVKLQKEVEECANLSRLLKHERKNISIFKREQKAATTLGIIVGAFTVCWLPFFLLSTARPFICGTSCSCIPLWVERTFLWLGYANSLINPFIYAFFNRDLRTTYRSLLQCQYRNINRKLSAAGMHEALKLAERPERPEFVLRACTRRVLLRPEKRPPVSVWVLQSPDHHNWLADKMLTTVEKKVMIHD

Consider `c1ccc(-c2cccc(C3=NCCN3)c2)cc1` [Compound 23, 2-([1,1′-biphenyl]-3-yl)-4,5-dihydro-1H-imidazole], for which the Kb at 5-HT7R [1] is 5.75 µM. At 5-HT7R [2], this compound registered an inhibition at 10 µM of 83.3% and an IC50 of 5.1 µM. At 5-HT7R [3], this compound yielded an inhibition at 10 µM of 44.2% and an IC50 of 47.9 µM.

In the case of `COc1ccccc1-c1cccc(C2=NCCN2)c1` [Compound 30, 2-(2′-methoxy-[1,1′-biphenyl]-3-yl)-4,5-dihydro-1H-imidazole], at 5-HT7R [1], the Kb was 1.26 µM. Moreover, on 5-HT7R [2], the inhibition at 10 µM turned out to be 94.1% and half-maximal inhibition (IC50) was put at 2.58 µM. In addition, at 5-HT7R [3], the inhibition at 10 µM turned out to be 40.6% and the 50% inhibitory concentration (IC50) was 39.8 µM.

At 5-HT7R [2], `Clc1cccc(-c2cc(C3=NCCN3)ccc2Cl)c1` [Compound 36, 2-(3′,6-dichloro-[1,1′-biphenyl]-3-yl)-4,5-dihydro-1H-imidazole] gave an inhibition at 10 µM of 52.4%. At 5-HT7R [3], this compound had an inhibition at 10 µM of 44.8% and an IC50 of 10 µM.

Regarding `Cc1ccc(-c2cccc(CN3CCCC3)c2)cc1` [Compound 7, 1-((4′-methyl-[1,1′-biphenyl]-3-yl)methyl)pyrrolidine], the inhibition at 10 µM was 32.5% at 5-HT7R [2] and 20.6% against 5-HT7R [3].

`Clc1ccc(-c2cccc(C3=NCCN3)c2)cc1` [Compound 26, 2-(4′-chloro-[1,1′-biphenyl]-3-yl)-4,5-dihydro-1H-imidazole]: the inhibition at 10 µM turned out to be 43% on 5-HT7R [2] and 23.1% against 5-HT7R [3].

Consider `Cc1ccc(-c2cccc(C3=NCCN3)c2)cc1` [Compound 29, 2-(4′-methyl-[1,1′-biphenyl]-3-yl)-4,5-dihydro-1H-imidazole], for which the values for the inhibition at 10 µM against 5-HT7R [2] and against 5-HT7R [3] were 35.2% and 17.2%, respectively.

Regarding `Cc1ccccc1-c1cc(C2=NCCN2)ccc1Cl` [Compound 38, 2-(6-chloro-2′-methyl-[1,1′-biphenyl]-3-yl)-4,5-dihydro-1H-imidazole], the inhibition at 10 µM against 5-HT7R [2] worked out at 51.4%; at 5-HT7R [3], 31.7%.

As for `COc1ccc(-c2cc(CN3CCCC3)ccc2Cl)cc1` [Compound 21, 1-((6-chloro-4′-methoxy-[1,1′-biphenyl]-3-yl)methyl)pyrrolidine], the inhibition at 10 µM at 5-HT7R [2] was 44.7%; at 5-HT7R [3], 18.6%.

With `COc1cccc(OC)c1-c1cccc(CN2CCCC2)c1` [Compound 11, 1-((2′,6′-dimethoxy-[1,1′-biphenyl]-3-yl)methyl)pyrrolidine], the inhibition at 10 µM came out at 32.8% against 5-HT7R [2] and 5.1% at 5-HT7R [3].

Turning to `COc1cccc(OC)c1-c1cc(C2=NCCN2)ccc1Cl` [Compound 44, 2-(6-chloro-2′,6′-dimethoxy-[1,1′-biphenyl]-3-yl)-4,5-dihydro-1H-imidazole], the inhibition at 10 µM against 5-HT7R [2] was 48.4%; on 5-HT7R [3] it was 9.8%.

For `Clc1ccc(-c2cccc(CN3CCCC3)c2)cc1` [Compound 4, 1-((4′-chloro-[1,1′-biphenyl]-3-yl)methyl)pyrrolidine], the inhibition at 10 µM came to 38.1% against 5-HT7R [2] and 14.1% on 5-HT7R [3].

These data come from patent US20230390247A1, “BIPHENYL PYRROLIDINE AND BIPHENYL DIHYDROIMIDAZOLE DERIVATIVES FOR INHIBITING ACTIVITY OF 5-HT7 SEROTONIN RECEPTOR, AND PHARMACEUTICAL COMPOSITION COMPRISING SAME AS ACTIVE INGREDIENT” (priority 2020, published 2023).
